From patent US20200024278A1, “COMPOSITION COMPRISING ANTIBIOTIC COMPOUND AND AN HETEROCYCLIC COMPOUND AND THEIR USE IN PREVENTING OR TREATING BACTERIAL INFECTIONS” (MUTABILIS, priority 2016, published 2020)

Tests used:
[1] = test system: ABA 19606; assay: MIC, broth microdilution (CLSI), substance alone or ATB combined with compound at 4 or 8 μg/mL; format: cell-based, A. baumannii; settings: Acinetobacter baumannii, substance alone, read-out: MIC
Outline: (§1)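 Growth inhibition endpoint, read visually after 16-20 h at 35° C in ambient air. Cation-adjusted Mueller-Hinton broth, inoculum 5·10^5 CFU/mL, CLSI M7-A7 protocol.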

[2] = test system: ABA UFR156; assay: as above; format: cell-based, A. baumannii; settings: Acinetobacter baumannii, substance alone, read-out: MIC
Outline: as §1

[3] = test system: ABA UFR160; assay: as above; format: cell-based, A. baumannii; settings: Acinetobacter baumannii, substance alone, read-out: MIC
Outline: as §1

[4] = test system: ABA UFR151; assay: as above; format: cell-based, A. baumannii; settings: Acinetobacter baumannii, substance alone, read-out: MIC
Outline: as §1

[5] = test system: ABA UFR161; assay: as above; format: cell-based, A. baumannii; settings: Acinetobacter baumannii, substance alone, read-out: MIC
Outline: as §1

[6] = test system: ABA 107292; assay: as above; format: cell-based, A. baumannii; settings: Acinetobacter baumannii, substance alone, read-out: MIC
Outline: as §1

[7] = test system: ABA UFR157; assay: as above; format: cell-based, A. baumannii; settings: Acinetobacter baumannii, substance alone, read-out: MIC
Outline: as §1

[8] = test system: ABA UFR155; assay: as above; format: cell-based, A. baumannii; settings: Acinetobacter baumannii, substance alone, read-out: MIC
Outline: as §1

[9] = test system: ABA UFR158; assay: as above; format: cell-based, A. baumannii; settings: Acinetobacter baumannii, substance alone, read-out: MIC
Outline: as §1

[10] = test system: ABA UFR159; assay: as above; format: cell-based, A. baumannii; settings: Acinetobacter baumannii, substance alone, read-out: MIC
Outline: as §1

[11] = test system: ABA UFR153; assay: as above; format: cell-based, A. baumannii; settings: Acinetobacter baumannii, substance alone, read-out: MIC
Outline: as §1

[12] = test system: ECL P99; assay: Fractional Inhibitory Concentration Index, checkerboard assay; format: cell-based, E. cloacae
Description: (§2) Method 2: Determination of the Fractional Inhibitory Concentration Index
(§3) Serial 2-fold dilutions of each antibiotic tested were prepared in ca-MHB and mixed in each well of a 96-well microtiter plate so that each row (and column) contained a fixed amount of one agent and increasing amounts of the second agent. The range of drug concentrations used in the checkerboard analysis was such that the dilution range encompassed the MIC for each drug used in the analysis. Broth microdilution plates were inoculated with each strain (Table 3) to yield 5.10^5 CFU/mL in a 100 μL final volume and incubated for 18 h at 35° C. in ambient air. Assays including Fosfomycin were supplemented with 25 μg/ml of Glucose-6-phosphate. MICs were determined after overnight incubation, and the fractional inhibitory concentration (FIC) index was calculated for each well. The FIC index (FICI) was calculated for each combination according to the equation FICI=FICa+FICb=(MIC of drug A in combination/MIC of drug A alone)+(MIC of drug B in combination/MIC of drug B alone). The FICI was interpreted as follows: synergy, FICI […]; indifference, 0.5<FIC<4; and antagonism, FICI>4. The checkerboard assays were performed in duplicate.

[13] = test system: KPN UFR68; assay: as above; format: cell-based, K. pneumoniae
Description: as §2, §3

[14] = test system: PAE UFR90; assay: as above; format: cell-based, P. aeruginosa
Description: as §2, §3

[15] = test system: PAE UFR48; assay: as above; format: cell-based, P. aeruginosa
Description: as §2, §3

[16] = test system: ECO 190317; assay: as above; format: cell-based, E. coli
Description: as §2, §3

## O=C1N2CC(n3cccn3)=C[C@H](C2)N1OS(=O)(=O)[O-].[Na+] [Example 15, sodium [(5R)-7-oxo-3-pyrazol-1-yl-1,6-diazabicyclo[3.2.1]oct-3-en-6-yl] sulfate]
[1]
  MIC: > 32 µg/mL
[2]
  MIC: > 32 µg/mL
[3]
  MIC: > 32 µg/mL
[4]
  MIC: > 32 µg/mL
[5]
  MIC: > 32 µg/mL
[6]
  MIC: > 32 µg/mL
[7]
  MIC: > 32 µg/mL
[8]
  MIC: > 32 µg/mL
[9]
  MIC: > 32 µg/mL
[10]
  MIC: > 32 µg/mL
[11]
  MIC: > 32 µg/mL

## NC[C@@H]1CC(=NOCC(N)=O)[C@@H]2CN1C(=O)N2OS(=O)(=O)[O-].O=C(O)C(F)(F)F.[Na+] [Example 4, 2,2,2-trifluroacetate and sodium [(2S,5S)-4-(2-amino-2-oxo-ethoxy)imino-2-(azaniumylmethyl)-7-oxo-1,6-diazabicyclo[3.2.1]octan-6-yl] sulfate]
[12]; compound +ATM
  FIC index min: 0.63
[12]; compound +FEP
  FIC index min: 0.44
[12]; compound +FOS
  FIC index min: ≤0.25
[12]; compound +MEM
  FIC index min: 0.44
[12]; compound +PIP
  FIC index min: 0.56
[13]; compound +ATM
  FIC index min: ≤0.023
[13]; compound +FEP
  FIC index min: ≤0.006
[13]; compound +FOS
  FIC index min: ≤0.035
[13]; compound +MEM
  FIC index min: ≤0.023
[13]; compound +PIP
  FIC index min: ≤0.063
[14]; compound +ATM
  FIC index min: 0.53
[14]; compound +FEP
  FIC index min: 0.63
[14]; compound +FOS
  FIC index min: 0.63
[14]; compound +MEM
  FIC index min: 1.0
[14]; compound +PIP
  FIC index min: 0.75
[15]; compound +ATM
  FIC index min: 0.50
[15]; compound +FEP
  FIC index min: 0.63
[15]; compound +FOS
  FIC index min: 1.20
[15]; compound +MEM
  FIC index min: 0.63
[15]; compound +PIP
  FIC index min: 0.44
[16]; compound +ATM
  FIC index min: 0.57
[16]; compound +FEP
  FIC index min: 0.31
[16]; compound +FOS
  FIC index min: 0.53
[16]; compound +MEM
  FIC index min: 0.87
[16]; compound +PIP
  FIC index min: ≤0.74
